Measured values: ChEMBL document CHEMBL4219153, “Identification of second-generation P2X3 antagonists for treatment of pain” (Bioorg Med Chem Lett, 2018)
pEC50, pIC50: −log10 of the molar value.

Assays:
[1] = target: T1, P2X purinoceptor 3 (Homo sapiens) (UniProt P56373); experiment: Antagonist activity at recombinant human P2X3 receptor expressed in Flp-In-293 cells assessed as inhibition of alphabeta-meATP-induced calcium flux preincubated for 10 mins followed by alphabeta-meATP addition measured at 5 sec intervals by Fluo-4 dye based FLIPR assay; format: cell-based
T1 sequence (whole entry): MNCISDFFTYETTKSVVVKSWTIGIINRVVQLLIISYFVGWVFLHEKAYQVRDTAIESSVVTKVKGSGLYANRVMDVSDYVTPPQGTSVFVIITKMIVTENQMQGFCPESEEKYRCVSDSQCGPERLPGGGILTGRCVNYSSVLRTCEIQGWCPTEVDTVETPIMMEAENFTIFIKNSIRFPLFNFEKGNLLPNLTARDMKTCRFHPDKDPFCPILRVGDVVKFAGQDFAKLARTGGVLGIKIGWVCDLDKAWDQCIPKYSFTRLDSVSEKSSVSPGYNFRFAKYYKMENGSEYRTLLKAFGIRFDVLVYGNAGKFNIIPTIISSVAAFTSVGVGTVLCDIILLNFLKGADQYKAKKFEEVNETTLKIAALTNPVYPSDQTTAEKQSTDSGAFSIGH

Cytochrome P450 2C9 = Cytochrome P450 2C9 (Homo sapiens, UniProt P11712); experiment: Inhibition of CYP2C9 (unknown origin); format: ADME
[2] = Protein binding in rat plasma; format: ADME, cell-free; settings: read-out: PPB (converted)
[3] = target: T2, Nuclear receptor subfamily 1 group I member 2 (Homo sapiens, UniProt O75469); experiment: Activation of PXR (unknown origin); format: ADME
T2 sequence (O75469 whole entry): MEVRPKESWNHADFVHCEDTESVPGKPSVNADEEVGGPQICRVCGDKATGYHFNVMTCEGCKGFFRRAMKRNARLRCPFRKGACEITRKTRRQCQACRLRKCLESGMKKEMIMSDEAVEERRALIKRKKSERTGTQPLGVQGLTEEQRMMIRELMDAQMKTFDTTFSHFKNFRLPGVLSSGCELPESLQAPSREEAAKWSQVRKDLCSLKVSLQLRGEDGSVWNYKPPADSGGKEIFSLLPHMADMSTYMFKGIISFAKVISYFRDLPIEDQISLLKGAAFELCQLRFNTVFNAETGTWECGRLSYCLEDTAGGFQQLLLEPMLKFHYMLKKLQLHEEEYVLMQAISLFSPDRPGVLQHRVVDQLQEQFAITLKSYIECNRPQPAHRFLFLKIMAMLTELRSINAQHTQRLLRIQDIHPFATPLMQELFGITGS

P2X purinoceptor 3 = target: T3, P2X purinoceptor 3 (Homo sapiens, UniProt P56373); experiment: Antagonist activity at recombinant human P2X3 receptor expressed in Flp-In-293 cells assessed as inhibition of CTP-induced […] current response preincubated for 2 mins followed by CTP addition along with test compound by whole cell patch-clamp method; format: cell-based
T3 sequence (P56373 whole entry): T1 sequence (whole entry)

Rattus norvegicus = experiment: Antinociceptive activity in complete freund's adjuvant induced mechanical hypersensitivity Sprague-Dawley rat model assessed as reversal of mechanical hyperalgesia by measuring hind paw withdrawal thresholds at 60 mg/kg, po; format: functional
[4] = Oral bioavailability in rat; format: ADME, organism-based; settings: in vivo
[5] = Oral bioavailability in dog; format: ADME, organism-based, Canis lupus familiaris; settings: in vivo
[6] = Intrinsic clearance in rat; format: ADME, organism-based; settings: in vivo
[7] = Half life in rat; format: ADME, organism-based; settings: in vivo
[8] = Protein binding in dog plasma; format: ADME, cell-free, Canis lupus familiaris; settings: read-out: PPB (converted)
[9] = Intrinsic clearance in dog; format: ADME, organism-based, Canis lupus familiaris; settings: in vivo
[10] = Half life in dog; format: ADME, organism-based, Canis lupus familiaris; settings: in vivo
[11] = target: T4, UDP-glucuronosyltransferase 1A1 (Homo sapiens, UniProt P22309); experiment: Inhibition of UGT1A1 in human liver microsomes assessed as decrease in estradiol-3 glucuronidation; format: ADME
T4 sequence (P22309 whole entry): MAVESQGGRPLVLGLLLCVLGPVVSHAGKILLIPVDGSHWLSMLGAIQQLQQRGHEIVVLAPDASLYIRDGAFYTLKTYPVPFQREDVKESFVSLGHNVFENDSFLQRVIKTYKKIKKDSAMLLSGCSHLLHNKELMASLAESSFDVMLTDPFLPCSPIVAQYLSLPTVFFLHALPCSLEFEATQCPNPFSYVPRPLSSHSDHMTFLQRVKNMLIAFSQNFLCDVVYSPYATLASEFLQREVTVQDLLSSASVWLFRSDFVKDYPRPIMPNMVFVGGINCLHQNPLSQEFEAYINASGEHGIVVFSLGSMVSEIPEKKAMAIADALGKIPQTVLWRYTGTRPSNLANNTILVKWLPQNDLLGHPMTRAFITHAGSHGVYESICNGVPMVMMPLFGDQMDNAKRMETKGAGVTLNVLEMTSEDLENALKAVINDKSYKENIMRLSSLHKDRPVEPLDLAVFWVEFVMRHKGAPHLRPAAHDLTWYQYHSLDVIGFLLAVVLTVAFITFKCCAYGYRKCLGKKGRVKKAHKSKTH

PXR = target: T5, PXR (Homo sapiens, UniProt O75469); experiment: Activation of PXR (unknown origin) at 10 uM relative to control; format: ADME; settings: read-out: Activity
T5 sequence (O75469 whole entry): T2 sequence (O75469 whole entry)

[12] = target: T4, UDP-glucuronosyltransferase 1A1; experiment: Inhibition of human UGT1A1 expressed in baculovirus infected insect cells using bilirubin as substrate measured after 10 mins by HPLC analysis; format: ADME
[13] = Oral bioavailability in rhesus monkey; format: ADME, organism-based, Macaca mulatta; settings: in vivo

Chain of Cytochrome P450 2C9 (P11712 whole entry): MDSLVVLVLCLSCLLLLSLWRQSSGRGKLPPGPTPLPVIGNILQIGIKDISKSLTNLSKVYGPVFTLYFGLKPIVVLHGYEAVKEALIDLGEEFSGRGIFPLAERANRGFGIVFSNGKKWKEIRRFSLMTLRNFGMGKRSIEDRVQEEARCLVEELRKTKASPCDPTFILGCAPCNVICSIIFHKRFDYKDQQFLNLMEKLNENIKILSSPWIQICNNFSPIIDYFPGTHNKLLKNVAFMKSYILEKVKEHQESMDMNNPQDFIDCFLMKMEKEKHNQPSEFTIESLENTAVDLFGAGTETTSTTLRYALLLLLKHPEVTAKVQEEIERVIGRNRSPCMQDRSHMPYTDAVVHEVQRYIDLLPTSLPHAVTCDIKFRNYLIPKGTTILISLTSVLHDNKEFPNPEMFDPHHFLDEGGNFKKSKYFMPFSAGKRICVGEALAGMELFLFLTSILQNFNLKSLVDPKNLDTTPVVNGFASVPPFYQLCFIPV

SMILES	pIC50 [1]	fraction unbound [2]	CLint scaled [6] [mL/min/kg]	other results
Cc1ccc(-c2cc(C(=O)N[C@H](C)c3ccc(C(F)(F)F)[n+]([O-])c3)cc(C(C)(C)O)c2)nc1	8.30	0.376	–	pIC50 (Cytochrome P450 2C9): < 4.30; pEC50 [3]: < 4.52
Cc1ccc(-c2cc(C(=O)N[C@H](C)c3ccc(F)c[n+]3[O-])cc(-c3ncccc3F)c2)nc1	8.70	0.096	–	–
Cc1ccc(-c2cc(C(=O)N[C@H](C)c3nnc[nH]3)cc(-c3ncccc3F)c2)nc1	6.55	–	–	–
Cc1ccc(-c2cc(C(=O)N[C@H](C)c3nc(C)no3)cc(-c3ncccc3F)c2)nc1	8.52	0.004	–	–
C[C@@H](NC(=O)c1cc(-c2ccc(Cl)cn2)cc(C(C)(C)O)c1)c1ccc(C(F)(F)F)[n+]([O-])c1	7.85	0.238	69	pIC50 (P2X purinoceptor 3): 7.74; EC90 (Rattus norvegicus): 160 nM; pIC50 (Cytochrome P450 2C9): 4.09; bioavailability [4]: 13%; bioavailability [5]: 63%; half-life [7]: 78 min; fraction unbound [8]: 0.263; CLint scaled [9]: 7.7 mL/min/kg; half-life [10]: 234 min; pIC50 [11]: < 4.70; pEC50 [3]: < 4.52
Cc1ccc(-c2cc(C(=O)N[C@H](C)c3ccc(F)cn3)cc(C3=NO[C@H](c4ccccn4)C3)c2)nc1	7.68	0.016	133	pIC50 (P2X purinoceptor 3): 7.62; EC90 (Rattus norvegicus): 3000 nM; pIC50 (Cytochrome P450 2C9): 5.24; activity at 10 µM (PXR): 47%; pIC50 [12]: 6.00; bioavailability [4]: 60%; bioavailability [5]: 68%; bioavailability [13]: 47%; half-life [7]: 60 min
Cc1ccc(-c2cc(C(=O)NCc3nc(C(C)C)no3)cc(-c3ncccc3F)c2)nc1	6.81	–	–	–
Cc1ccc(-c2cc(C(=O)N[C@H](C)c3ccc(C(F)(F)F)[n+]([O-])c3)cc(-c3ncccc3F)c2)nc1	8.30	0.048	–	–
Cc1ccc(-c2cc(C(=O)N[C@H](C)c3ccc(F)cn3)cc(-n3nccn3)c2)nc1	7.43	0.026	3910	–
Cc1ccc(-c2cc(C(=O)N[C@@H](C)c3nc(C)no3)cc(-c3ncccc3F)c2)nc1	7.77	–	–	–
Cc1ccc(-c2cc(C(=O)N[C@@H](C)c3nnc[nH]3)cc(-c3ncccc3F)c2)nc1	8.00	0.012	–	–
C[C@@H](NC(=O)c1cc(-c2ccc(Cl)cc2)cc(C(C)(C)O)c1)c1ccc(C(F)(F)F)[n+]([O-])c1	7.68	0.026	214	half-life [7]: 144 min
Cc1ccc(-c2cc(C(=O)NC3(c4nc(C)no4)CC3)cc(-c3ncccc3F)c2)nc1	6.77	–	–	–
C[C@@H](NC(=O)c1cc(-c2ccc(F)cn2)cc(C(C)(C)O)c1)c1ccc(C(F)(F)F)[n+]([O-])c1	7.09	0.447	477	half-life [7]: 28.8 min
Cc1ccc(-c2cc(C(=O)N[C@H](C)c3ccc(F)cn3)cc(N3CCOCC3)c2)nc1	7.33	0.149	533	pEC50 [3]: < 4.52
Cc1ccc(-c2cc(C(=O)N[C@H](C)c3ccc(C(F)(F)F)[n+]([O-])c3)cc(C(C)(C)O)c2)cc1	7.70	0.046	6790	half-life [7]: 12 min
Cc1ccc(-c2cc(C(=O)NCCc3nc(C)no3)cc(-c3ncccc3F)c2)nc1	7.35	–	–	–
Cc1ccc(-c2cc(C(=O)N[C@H](C)c3ccc(C(F)(F)F)nc3)cc(-c3ncccc3F)c2)nc1	8.10	0.014	–	–
Cc1ccc(-c2cc(C(=O)N[C@H](C)c3ccc(F)cn3)cc(C(C)(C)O)c2)nc1	7.17	0.18	–	pEC50 [3]: 5.70
Cc1ccc(-c2cc(C(=O)N[C@H](C)c3ccc(C(F)(F)F)nc3)cc(C(C)(C)O)c2)nc1	7.85	0.048	–	pIC50 (Cytochrome P450 2C9): 4.72; pEC50 [3]: 4.74
Cc1ccc(-c2cc(C(=O)N[C@@H](c3nc(C)no3)C3CC3)cc(-c3ncccc3F)c2)nc1	7.52	–	–	–
Cc1ccc(-c2cc(C(=O)N[C@H](C)c3ccc(F)cn3)cc(-c3ncccc3F)c2)nc1	8.10	0.008	24800	pEC50 [3]: 5.22
